Like-named read-outs stand apart in the source and are kept apart here.
Assays:
[1] = Procedure: Samples were prepared for injection: 104 pmol anti-Ox antibody and 52 pmol Ox; 104 pmol of D1.3 control antibody and 52 pmol Ox; and 52 pmol Ox alone. Each sample was diluted to 10 μl with sterile PBS. The samples were warmed to 37° C., and then infused over 1 minute through the intraventricular or cisternal cannula in Sprague-Dawley rats. The end of the infusion was designated as time zero (0). At various timepoints, 10 μl of CSF was withdrawn. For one set of rats, the 10 μl CSF was counted directly by placing it into 5 ml of Scintiverse II and counting in a Beckman LS6500 Scintillation Counter. For another set of rats, the 10 μl CSF was diluted into 100 μl ice cold PBS and used in bound vs. free Ox experiments described below.
The rat anti-mouse kappa antibody 187.1 (obtained from American Type Culture Collection (ATCC), Manassas, Va.) (Yelton et al., Hybridoma 1:5-11 (1981)) was isolated from spent culture medium and purified by passage over a Protein A-Sepharose affinity column. Ten grams of CNBr-activated Sepharose 4 Fast Flow (Amersham Biosciences) were washed and coupled with 187.1 according to manufacturer's protocol. Two mg 187.1 per 10 g of swelled resin were used.
During the antibody buffering experiments, the CSF plus ice cold PBS sample were loaded onto the 187.1 column immediately after the dilution. Application to the column of 3 ml of PBS in 0.5 ml increments was followed by application of 3 ml of 0.2 M glycine (pH 2.5) in 0.5 ml increments. All the PBS fractions and all the glycine fractions were collected separately for each timepoint and dried down in the SpeedVac. The residue was resuspended in 150 μl PBS and then transferred to a scintillation vial with 5 ml Scintiverse II for counting.
Samples of NQ11/7.12 and Ox were prepared and infused into the cisternal cannula of Sprague-Dawley rats from Charles River Laboratories as described above for the antibody buffering protocol. Ten μl of CSF was taken from the cisterna magna at time 1, 10, 20, 30, 60, 90 and 120 minutes. The 10 μl CSF samples were either counted directly or diluted into 100 μl ice cold PBS and loaded onto a 187.1 column to separate bound and free Ox. At 24 hours and at 48 hours following the first administration, 52 pmol Ox in 10 μl total volume (diluted with sterile PBS) was infused over 1 minute through the cisterna magna cannula. Timepoints were again taken and analyzed as above.
The principle of chemical equilibrium predicts that the Ox in the CSF should partition between free and antibody-bound forms, and that the free pool should be constantly replenished, staying at a concentration near the antibody's Kd. The Ox in the CSF samples from another set of rats was separated into bound and free forms by passage over an affinity column. […] Antibody-Ox complexes bound to the immobilized rat anti-mouse kappa antibody while free Ox eluted from the column with the PBS wash (free Ox fraction).

[2] = Antibody buffering in plasma: total Ox after jugular infusion; assay type: in vivo, rat; settings: for t1/2 of Ox (FIG. 6): 5 animals per point
Excerpt: Timepoints were again taken and analyzed as above.
To determine its pharmacokinetic behavior, tritiated Ox was infused into a rat through a jugular cannula, and elimination of Ox was followed through blood sampling, separation of the plasma by centrifugation, and scintillation counting of the plasma.

[3] = Ox administered alone or with D1.3
[4] = Ox with D1.3, biphasic elimination

## O=C(O)CCCNC=C1N=C(c2ccccc2)OC1=O [Ox, 2-phenyl-oxazol-5-one-γ-amino butyrate]
[1]; [3]
  decrease of free Ox concentration in CSF in an hour: 500 fold
  free Ox elimination half-life in CSF: 0.61 min
  initial free Ox concentration in CSF: 1.4 mM
[1]; Ox administered with NQ11/7.12
  decrease of free Ox concentration in CSF over time: less than 10 fold
  free Ox concentration in CSF after the decrease: approximately 6 nM
  free Ox elimination half-life in CSF: 1.55 min
  initial free Ox concentration in CSF: 6e-05 mM
[1]; Ox alone re-administered at 24 hours and 48 hours after a single NQ11/7.12 + Ox cisternal infusion
  free Ox elimination in CSF, long term buffering: slower elimination profile than Ox administered with D1.3
[2]; NQ11/7.12 vs D1.3
  increase in Ox half-life in plasma with anti-Ox antibody: seventeen-fold
[2]; Ox administered with NQ11/7.12, jugular vein cannula
  t1/2 of Ox (FIG. 6): 19.7 min
[2]; Ox administered with control antibody D1.3, jugular vein cannula
  t1/2 of Ox (FIG. 6): 1.2 min
[2]; Ox alone re-administered at 24 hours and 48 hours after a single NQ11/7.12 + Ox infusion
  total Ox pharmacokinetic lifetime in plasma, long term buffering: only small changes
[2]; Ox alone, jugular infusion
  Ox elimination half-life from plasma: 1.2 min
[2]; Ox infused with NQ11/7.12 or D1.3, rats
  adverse effects in the animal subjects: No adverse effects were noted
[2]; [4]
  Ox elimination half-life from plasma, major (fast) phase: 1.2 ± 0.2 min
  Ox elimination half-life from plasma, smaller (slow) phase: 10 ± 2 min
[2]; Ox with twice the molar amount of NQ11/7.12
  Ox elimination half-life from plasma: 20 ± 2 min
[2]; rat, in vivo
  Ox concentration in the cellular fraction of blood, of the total Ox concentration in the plasma: 1-2%

From patent US20160082105A1, “Antibody Buffering of a Ligand in Vivo” (ARROWSMITH TECHNOLOGIES CORPORATION, priority 2004, published 2016)
